pIC50: −log10 of the molar value. One block for each compound: values may come before it.
Experiments:
[1] = Inhibition of human GSNOR
[2] = Inhibition of NMDA-induced nNOS/PSD95 in rat cortical neurons preincubated for 30 mins followed by NMDA addition in presence of glutamate/glycine measured after 24 hrs by immunoprecipitation assay; assay type: cell-based; conditions: cortical neuron
[3] = Inhibition of recombinant nNOS (1 to 299 residues) (unknown origin)/biotin-tagged PSD95 (unknown origin) protein-protein interaction by DELFIA; set-up: species or system Homo sapiens
[4] = species: Homo sapiens; experiment: Inhibition of nNOS (unknown origin)/CAPON (unknown origin) protein-protein interaction assessed as residual activity by coimmunoprecipitation assay relative to control; set-up: concentration or dose not given beside the values

Structure (SMILES): O=C(O)c1ccc(NCc2cc(F)ccc2O)cc1O
pIC50 [2]: 6.06

Structure (SMILES): Oc1c(Cl)cc(Cl)cc1CNc1ccc2nn[nH]c2c1
pIC50 [3]: 4.51

Structure (SMILES): O=C(O)c1cc(NCc2cc(Cl)cc(Cl)c2O)ccc1O
pIC50 [2]: 3.06

Structure (SMILES): CC(C)[C@@H](NC(=O)CC(=O)O)C(=O)O
Activity [4]: 75%

Structure (SMILES): COC(=O)[C@@H](Cc1ccccc1)NC(=O)CC(=O)O
Activity [4]: 76.6%

Structure (SMILES): COC(=O)c1ccc(NCc2cc(Cl)cc(Cl)c2O)cc1O
pIC50 [2]: 4.95

Structure (SMILES): COC(=O)[C@@H](NC(=O)CC(=O)O)C(C)C
Activity [4]: 37.5%

Structure (SMILES): O=C(O)c1ccc(NCCc2cc(Cl)cc(Cl)c2O)cc1O
pIC50 [2]: 3.22

Structure (SMILES): O=C(O)c1ccc(C#Cc2ccc(O)cc2Cl)c(CCCn2cnnn2)c1
pIC50 [1]: > 7.30

Structure (SMILES): COC(=O)[C@H](NC(=O)CC(=O)O)C(C)C
Activity [4]: 30.5%

Structure (SMILES): COC(=O)CCC(=O)N[C@@H](C(=O)OC)C(C)C
Activity [4]: 61.8%

Structure (SMILES): COC(=O)[C@H](NCCC(=O)O)C(C)C
Activity [4]: 87.8%

Structure (SMILES): O=C(O)c1ccc(NCc2cc(Br)ccc2O)cc1O
pIC50 [2]: 4.99

Structure (SMILES): O=C(O)c1ccc(NCc2cc(Cl)cc(Cl)c2O)cc1O
pIC50 [2]: 7.09

Structure (SMILES): O=C(O)c1ccc(NCc2cc(Cl)ccc2O)cc1O
pIC50 [2]: 4.40

Structure (SMILES): COC(=O)[C@H](NC(=O)Cc1nnn[nH]1)C(C)C
Activity [4]: 49.4%

Structure (SMILES): COC(=O)CC(=O)N[C@@H](C(=O)OC)C(C)C
Activity [4]: 26.3%

Other lines, results leading:

pIC50 [1]: 7.64
Structure (SMILES): Cc1nccn1-c1ccc(-c2ccc(CCC(=O)O)n2-c2ccc(S(N)(=O)=O)cc2)s1

pIC50 [1]: 7.15
Structure (SMILES): Cc1cc(C(N)=O)ccc1-n1c(CCC(=O)O)ccc1-c1ccc(Br)cc1

pIC50 [1]: 7.26
Structure (SMILES): Cc1cc(C(N)=O)ccc1-n1c(CCC(=O)O)ccc1-c1ccc(Cl)cc1O

pIC50 [1]: 7.66
Structure (SMILES): Cc1cc(S(N)(=O)=O)ccc1-n1c(CCC(=O)O)ccc1-c1ccc(-n2ccnc2C)s1

pIC50 [1]: 7.44
Structure (SMILES): Cc1nccn1-c1ccc(-c2ccc(CCC(=O)O)n2-c2ccc(O)cc2)s1

pIC50 [1]: 7.25
Structure (SMILES): COc1cc(Cl)ccc1-c1ccc(CCC(=O)O)n1-c1ccc(C(N)=O)cc1C

pIC50 [1]: > 7.30
Structure (SMILES): NC(=O)c1ccc(-c2cc(C(=O)O)ccc2C#Cc2ccc(O)cc2Cl)cc1

pIC50 [1]: 7.37
Structure (SMILES): Cc1cc(NS(C)(=O)=O)ccc1-n1c(CCC(=O)O)ccc1-c1ccc(-n2ccnc2C)s1

pIC50 [1]: 7.41
Structure (SMILES): O=C(O)CCc1ccc(-c2ccc(-n3ccnc3)cc2)n1-c1ccc(O)cc1

pIC50 [1]: 7.54
Structure (SMILES): Cc1cc(NS(C)(=O)=O)ccc1-n1c(CCC(=O)O)ccc1-c1ccc(-n2ccnc2)cc1

pIC50 [1]: > 7.30
Structure (SMILES): Cc1cc(-n2ccnc2)ccc1-c1cc2sc(C(=O)O)cc2n1-c1ccc(C(N)=O)c(OCC(C)C)c1

pIC50 [1]: > 7.00
Structure (SMILES): CCOc1cc([C@@H]2NC(=O)NC(c3cccnc3)=C2c2ccsc2)cc(C(=O)O)c1O

Source: ChEMBL document CHEMBL5131513, “Protein S-Nitrosation: Biochemistry, Identification, Molecular Mechanisms, and Therapeutic Applications” (J Med Chem, 2022)
